Data taken from US4892887A, “N,N'-bis(sulfonyl)hydrazines having antineoplastic activity” (Yale University, priority 1988, dated 1990).

Experiments:
L1210 leukemia = assay: Survival time of mice bearing the L1210 leukemia; type: in vivo, mouse (CDF-1 mice); details: for Av. Change wt. %: L1210 mice
From the text: The ascites cell forms of the L1210 leukemia, Sarcoma 180 and P388 leukemia were propagated in CDF-1 mice. […] Mice were weighed during the course of the experiments, and the percentage change in body weight from the onset to termination of therapy was used as an indication of host toxicity.
Each value represents the average of 5 animals per group.

B16 melanoma = assay: Survival time of mice bearing the B16 melanoma; type: in vivo, mouse (C57B1 mice); details: for Max. % T/C: Table IV, B16, at optimum effective daily dose; for Av. Change in wt., %: at optimum effective daily dose, B16 mice
Protocol: This tumor was propagated in C57B1mice. Transplantation was carried out by removing tumors from donor mice bearing 14-day subcutaneous tumor growths. The tissue was fragmented to make a well-dispersed cellular suspension and diluted with Fischer's medium without serum so that one gram of tissue was suspended in 5 ml of solution. A portion (0.2 ml) of the resulting cell suspension was injected intraperitoneally into each recipient animal. All compounds were administered over a wide range of dosage levels by intraperitoneal injection, beginning 24 hours after tumor implantation, once daily for 6 consecutive days. The test compounds were injected as fine suspensions following homogenization in 2 to 3 drops of 20% aqueous Tween 80 and then made up to volume with isotonic saline. […] Mice were weighed during the course of the experiments, and the percent change in body weight from onset to termination of therapy was used as an indication of drug toxicity. Determination of the sensitivity of neoplasms to these agents was based on the prolongation of survival time afforded by the drug treatments.
^a Administered once daily for six consecutive days, beginnign 24
hours after tumor transplanation, with 5 animals being used per group.
^b Average change in body weight from onset to termination of therapy
^c % T/C = average survival time of treated/control animals ×
100. Each value represents the average of 5 animals per group.

B16 melanoma cells = assay: Cytotoxicity: colony-forming ability of B16 melanoma cells; type: cell-based; details: Mus musculus, 1 hour exposure, 12 days incubation, average of two determinations, read-out: LD50 (the source's name)
Protocol: The cytotoxicity of compounds 8 and 12 was determined by measuring their effects on the colony-forming ability of B16 melanoma cells. The cells were maintained in Eagle's minimum essential medium supplemented with 10% fetal bovine serum. To obtain exponentially growing B16 melanoma cells, a 25 cm^2 flask was inoculated with 10^5 cells for two days before addition of drug. The cell monolayer was exposed to various concentrations of compound for 1 hour. After exposure, the layer was washed twice with PBS to remove the compound. The cells were harvested with 2 mM EDTA in PBS, and 200 cells were plated on a 60 mm dish with 5 mL of medium. After incubation for 12 days, the colonies were stained with crystal violet and counted. […] The LD50 was determined from the individual dose-response curves.

P388 leukemia = assay: Survival time of mice bearing the P388 leukemia; type: in vivo, mouse (CDF-1 mice); details: at 150 mg/kg
Protocol: The tumor-inhibitory properties of compounds 1-12 were determined by measuring their effects on the survival time of mice bearing the L1210 leukemia and in some cases Sarcoma 180, and the P388 leukemia. The ascites cell forms of the L1210 leukemia, Sarcoma 180 and P388 leukemia were propagated in CDF-1 mice. Transplantation was carried out using donor mice bearing 7-day tumor growths; experimental details are described in Agrawal et al., J. Med. Chem., 11, 700, 1968, incorporated herein by reference. Mice were weighed during the course of the experiments, and the percentage change in body weight from the onset to termination of therapy was used as an indication of host toxicity.

[1] = 10 mg/kg once daily for six days
[2] = 20 mg/kg once daily for six days
[3] = 30 mg/kg once daily for six days
[4] = 50 mg/kg once daily for six days
[5] = 100 mg/kg once daily for six days
[6] = 150 mg/kg once daily for six days

Compound: Cc1ccc(S(=O)(=O)N(C)NS(C)(=O)=O)cc1 [Compound 12]
- Average Survival Time of Treated Animals, days ± SE (L1210 leukemia; [1]): 14.8 ± 0.4 days
- Av. Change wt. % (L1210 leukemia; [1]): +9.1%
- Average Survival Time of Treated Animals, days ± SE (L1210 leukemia; [2]): 15.0 ± 0.7 days
- Av. Change wt. % (L1210 leukemia; [2]): -2.0%
- Average Survival Time of Treated Animals, days ± SE (L1210 leukemia; [3]): 19.2 ± 2.0 days
- Av. Change wt. % (L1210 leukemia; [3]): -7.9%
- response vs control in vivo at 10 mg/kg (L1210 leukemia; Mus musculus, 144 h, 10 mg/kg once daily for six days, L1210, read-out: % T/C): 161%
- response vs control in vivo at 20 mg/kg (L1210 leukemia; Mus musculus, 144 h, 20 mg/kg once daily for six days, L1210, read-out: % T/C): 163%
- response vs control in vivo at 30 mg/kg (L1210 leukemia; Mus musculus, 144 h, 30 mg/kg once daily for six days, L1210, read-out: % T/C): 209%
- activity against the L1210 leukemia (in words) (L1210 leukemia; mouse, in vivo): high level of activity against the L1210 leukemia
- % T/C (B16 melanoma; B16, daily dosage of 10 mg/kg (Table IV footnote d)): 206 % T/C
- % T/C (B16 melanoma; B16, daily dosage of 20 mg/kg (Table IV footnote d)): 206 % T/C
- dosage range of activity against the B16 melanoma (B16 melanoma; B16 melanoma in mice): 10 to 30 mg/kg
- Max. % T/C (B16 melanoma): 207 % T/C
- toxicity at higher dosage levels (in words) (B16 melanoma; above 10-30 mg/kg): toxic at higher dosage levels
- Av. Change in wt., % (B16 melanoma): -1.9%
- IC50 (B16 melanoma cells): 620 nM

Compound: COc1ccc(S(=O)(=O)NN(C)S(=O)(=O)c2ccc(OC)cc2)cc1 [Compound 9, N,N'-bis (p-methoxybenzenesulfonyl)-N-methylhydrazine]
- Average Survival Time of Treated Animals, days ± SE (L1210 leukemia; [4]): 13.4 ± 1.0 days
- Av. Change wt. % (L1210 leukemia; [4]): +10.9%
- Average Survival Time of Treated Animals, days ± SE (L1210 leukemia; [5]): 13.2 ± 1.1 days
- Av. Change wt. % (L1210 leukemia; [5]): +1.9%
- Average Survival Time of Treated Animals, days ± SE (L1210 leukemia; [6]): 12.2 ± 1.2 days
- Av. Change wt. % (L1210 leukemia; [6]): -1.6%
- response vs control in vivo at 50 mg/kg (L1210 leukemia; Mus musculus, 144 h, 50 mg/kg once daily for six days, L1210, read-out: % T/C): 149%
- response vs control in vivo at 100 mg/kg (L1210 leukemia; Mus musculus, 144 h, 100 mg/kg once daily for six days, L1210, read-out: % T/C): 147%
- response vs control in vivo at 150 mg/kg (L1210 leukemia; Mus musculus, 144 h, 150 mg/kg once daily for six days, L1210, read-out: % T/C): 136%
- Max. % T/C vs. P388 leukemia (P388 leukemia): 136 % T/C
- Max. % T/C (B16 melanoma): 191 % T/C
- Av. Change in wt., % (B16 melanoma): +2.4%
